Results on 21 molecules are retold here after patent US9963462B2 (priority 2015, dated 2018).

Assay [1] concerns the target SNAP-hSPR (sepiapterin reductase, SPR) (Homo sapiens, UniProt P35270). The experiment in a line: biochemical. It counts as binding. The conditions noted are these: terbium labelled SNAP-hSPR / SSZ labelled SNAP-EGFP; read-out: hTR-FRET IC50.
Assay [2] relates to BH4 levels in SK-N-BE (2) cells. The experiment in a line: SKN-N-BE (2) cellular assay, BH4 levels by LC-MS. The conditions noted are these: Homo sapiens, SKNBE2, read-out: SK-N-BE(2) IC50, SK-N-BE (2) cells, BH4 levels by LC-MS. It counts as cell-based.

Sequence of SNAP-hSPR (sepiapterin reductase, SPR) (P35270 whole entry): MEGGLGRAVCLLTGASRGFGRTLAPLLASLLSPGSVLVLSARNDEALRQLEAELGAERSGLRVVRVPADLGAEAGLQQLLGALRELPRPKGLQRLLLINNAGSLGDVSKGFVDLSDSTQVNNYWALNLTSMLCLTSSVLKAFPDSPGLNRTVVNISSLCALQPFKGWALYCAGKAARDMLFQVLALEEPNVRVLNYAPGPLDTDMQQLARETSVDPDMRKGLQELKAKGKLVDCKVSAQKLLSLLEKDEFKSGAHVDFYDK

As for `O=C(c1ccc(-c2nc3c(c(=O)[nH]2)CCC3)nc1)N1CCC(C(F)(F)F)CC1` [Q-0472, 2-{5-[4-(trifluoromethyl)piperidine-1-carbonyl]pyridin-2-yl}-3H,4H,5H,6H,7H-cyclopenta[d]pyrimidin-4-one], the IC50 – broadly, the point on the concentration scale where inhibition reaches its midpoint – was found to be 200 nM in assay [1] and 17000 nM in assay [2].
Take `Cc1c(C(=O)N2CCC(C#N)(c3ccccc3)CC2)cnn1-c1nc2c(c(=O)[nH]1)CCC2` [Q-0473]: the figures for the half-maximal inhibitory concentration (IC50) in assay [1] and in assay [2] were 6 nM and 92 nM, respectively.
For `Cc1c(C(=O)N2CCC(CC(F)(F)F)CC2)cnn1-c1nc2c(c(=O)[nH]1)CCC2` [Q-0476], in that order: 3 nM and 56 nM.
As to `Cc1c(C(=O)N2CCC(Oc3ccccc3)C2)cnn1-c1nc2c(c(=O)[nH]1)CCC2` (stereo not drawn) [Q-0477], the IC50 in assay [1] turned out to be 5 nM; in assay [2], 91 nM.
For the molecule `COC1CCN(C(=O)c2cnn(-c3nc4c(c(=O)[nH]3)CCC4)c2C)C1` (stereo not drawn) [Q-0478], the IC50 in assay [1] worked out at 6 nM; in assay [2] it was 1400 nM.
With `Cc1c(C(=O)N2CC(c3ccccc3)C2)cnn1-c1nc2c(c(=O)[nH]1)CCC2` [Q-0479], the values for the IC50 in assay [1] and in assay [2] were 6 nM and 100 nM, respectively.
For `Cc1c(C(=O)O)cnn1-c1nc2c(c(=O)[nH]1)CCC2` [Q-0481, 5-methyl-1-{4-oxo-3H,4H,5H,6H,7H-cyclopenta[d]pyrimidin-2-yl}-1H-pyrazole-4-carboxylic acid], in that order: 30 nM and 95000 nM.
For `COC1CCCN(C(=O)c2cnn(-c3nc4c(c(=O)[nH]3)CCC4)c2C)C1` (stereo not drawn) [Q-0482], in that order: 8 nM and 1000 nM.
`Cc1c(C(=O)N2CCC(O)(c3ccccc3)CC2C)cnn1-c1nc2c(c(=O)[nH]1)CCC2` (stereo not drawn) [Q-0483]: the values for the IC50 in assay [1] and in assay [2] were 4 nM and 49 nM, respectively.
For `Cc1ccccc1N1CCN(C(=O)c2cnn(-c3nc4c(c(=O)[nH]3)CCC4)c2C)CC1` [Q-0485], in that order: 9 nM and 62 nM.
For `Cc1c(C(=O)N(C)Cc2nnc(-c3ccc(Cl)cc3)o2)cnn1-c1nc2c(c(=O)[nH]1)CCC2` [Q-0486], in that order: 6 nM and 100 nM.
In the case of `Cc1c(C(=O)N(CCC#N)C2CCCCC2)cnn1-c1nc2c(c(=O)[nH]1)CCC2` [Q-0487], the IC50 in assay [1] came to 3 nM; in assay [2] it was 600 nM.
For `Cc1c(C(=O)N2CCC(c3ccccc3)CC2)cnn1-c1nc2[nH]ccc2c(=O)[nH]1` [Q-0488], in that order: 20 nM and 1200 nM.
`Cc1c(C(=O)N2Cc3ccccc3C[C@H]2C(=O)NC(C)(C)C)cnn1-c1nc2c(c(=O)[nH]1)CCC2` [Q-0489]: the IC50 is 8 nM in assay [1] and 53 nM in assay [2].
Regarding `CCN(Cc1ccccc1)C(=O)c1cnn(-c2nc3c(c(=O)[nH]2)CCC3)c1C` [Q-0490], the IC50 in assay [1] turned out to be 7 nM; in assay [2] it was 100 nM.
For `Cc1c(C(=O)N2CCC(Cc3ccccc3)CC2)cnn1-c1nc2c(c(=O)[nH]1)CCC2` [Q-0491], in that order: 20 nM and 37 nM.
For `Cc1c(C(=O)N(C)C2CCCCC2)cnn1-c1nc2c(c(=O)[nH]1)CCC2` [Q-0492], the IC50 turned out to be 8 nM in assay [1] and 200 nM in assay [2].
Consider `Cc1c(C(=O)N(Cc2ccccc2)[C@@H](C)c2ccccc2)cnn1-c1nc2c(c(=O)[nH]1)CCC2` [Q-0493], for which the values for the IC50 in assay [1] and in assay [2] were 30 nM and 29 nM, respectively.
For `Cc1c(CN2CCCCC2=O)cnn1-c1nc2c(c(=O)[nH]1)CCC2` [Q-0494, 1-[(5-methyl-1-{4-oxo-3H,4H,5H,6H,7H-cyclopenta[d]pyrimidin-2-yl}-1H-pyrazol-4-yL)methyl]piperidin-2-one], in that order: 6 nM and 300 nM.
For `Cc1c(C(=O)N2CCC(c3ccccc3)CC2)cnn1-c1nc2ccsc2c(=O)[nH]1` [Q-0495], in that order: 5 nM and 51 nM.
In the case of `Cc1c(C(=O)N2CCC[C@@H]2C(=O)OCc2ccccc2)cnn1-c1nc2c(c(=O)[nH]1)CCC2` [Q-0496], the IC50 in assay [1] is 7 nM; in assay [2], 400 nM.
